Test results reported in the Deep4Chem optical property database.

Experiment: solvent given as SMILES

SMILES: CCCc1c(C(=O)c2ccc3c4c(cccc24)-c2cccc4c2C3CC=C4)c2ccc3cccc4c5cccc6ccc1c(c65)c2c34 (configuration not stated)
- fluorescence lifetime (in ClCCl): 1.04 ns

SMILES: FC(F)(F)c1cc2n(n1)[B-]1(c3ccccc3-c3ccccc31)[n+]1ccc3ccccc3c1-2
- fluorescence lifetime (in C1CCCCC1): 1.22 ns
- fluorescence lifetime (in Cc1ccccc1): 1.22 ns
- fluorescence lifetime (in ClCCl): 13.7 ns

SMILES: Cc1cc2ccccc2cc1C
- fluorescence lifetime (in C1CCCCC1): 133 ns

SMILES: COc1ccc(-c2cc(C)nc(-c3ccc(-n4c5ccccc5c5ccccc54)cc3)n2)cc1
- fluorescence lifetime (in C1CCOC1): 2.56 ns
- fluorescence lifetime (in CN(C)C=O): 5.31 ns
- fluorescence lifetime (in Cc1ccccc1): 1.21 ns
- fluorescence lifetime (in ClC(Cl)Cl): 2.97 ns

SMILES: CC(C)[Si]1(C(C)C)c2ccccc2-c2ccc(N(C)C)cc21
- fluorescence lifetime (in C1CCCCC1): 6.5 ns
- fluorescence lifetime (in ClCCl): 4 ns

SMILES: c1ccc(-c2ccc(-c3ccc(-n4c5ccccc5c5ccccc54)cc3)c3nsnc23)cc1
- fluorescence lifetime (in C1CCOC1): 7.52 ns
- fluorescence lifetime (in CC(C)=O): 5.2 ns
- fluorescence lifetime (in CCCCCC): 5.87 ns
- fluorescence lifetime (in CCOCC): 7.2 ns

SMILES: c1ccc(N(c2ccccc2)c2c3ccccc3cc3ccccc23)cc1
- fluorescence lifetime (in Cc1ccccc1): 21 ns

SMILES: CCOC(=O)c1ccc2c(c1)sc1c3ccc(C(=O)OCC)cc3sc21
- fluorescence lifetime (in CCCO): 0.35 ns

SMILES: CCN(CC)c1ccc2cc(C#N)c(=O)oc2c1
- fluorescence lifetime (in ClCCl): 2.7 ns

SMILES: CC(C)(C)c1ccc2c(c1)c1cc(C(C)(C)C)ccc1n2-c1ccc(C#Cc2ccccc2)cc1
- fluorescence lifetime (in CC#N): 4.75 ns
- fluorescence lifetime (in CCCCC): 2.07 ns
- fluorescence lifetime (in CO): 4.99 ns
- fluorescence lifetime (in Cc1ccccc1): 1.77 ns
- fluorescence lifetime (in ClC(Cl)Cl): 2.39 ns
- fluorescence lifetime (in ClCCl): 3.91 ns

SMILES: CC(C)(C)c1ccc(-c2nc3c4ccc(-c5c6ccccc6cc6ccccc56)cc4c4cc(-c5c6ccccc6cc6ccccc56)ccc4c3n2-c2ccc(C(C)(C)C)cc2)cc1
- fluorescence lifetime (in ClCCl): 6.1 ns

SMILES: CCOC(=O)CCCCCn1c2ccc(F)cc2c(=O)c2cc3c(cc21)c(=O)c1cc(F)ccc1n3CCCCCC(=O)OCC
- fluorescence lifetime (in CO): 22.7 ns

SMILES: CN(C)c1ccc(/C=C/C=C2\CC/C(=C\C=C\c3ccc(N(C)C)cc3)C2=O)cc1
- fluorescence lifetime (in C1CCCCC1): 0.48 ns
- fluorescence lifetime (in CC#N): 0.49 ns
- fluorescence lifetime (in CC(C)=O): 0.8 ns
- fluorescence lifetime (in CC(C)O): 0.56 ns
- fluorescence lifetime (in CCCCCC): 0.86 ns
- fluorescence lifetime (in CCCCO): 0.37 ns
- fluorescence lifetime (in CCCO): 0.19 ns
- fluorescence lifetime (in CCO): 0.24 ns
- fluorescence lifetime (in CCOC(C)=O): 0.69 ns
- fluorescence lifetime (in CCOCC): 0.76 ns
- fluorescence lifetime (in CN(C)C=O): 0.67 ns
- fluorescence lifetime (in CO): 0.21 ns
- fluorescence lifetime (in CS(C)=O): 0.58 ns
- fluorescence lifetime (in Cc1ccccc1): 0.86 ns
- fluorescence lifetime (in ClC(Cl)(Cl)Cl): 0.76 ns
- fluorescence lifetime (in ClCCl): 1.08 ns
- fluorescence lifetime (in OCC(F)(F)F): 0.14 ns
- fluorescence lifetime (in S=C=S): 0.83 ns
- fluorescence lifetime (in c1ccccc1): 0.81 ns
- fluorescence lifetime (in c1ccncc1): 1.17 ns

SMILES: CN(C)c1ccc2c(-c3ccc(N)cc3C(=O)[O-])c3ccc(=[N+](C)C)cc-3oc2c1
- fluorescence lifetime (in CCO): 3.19 ns
- fluorescence lifetime (in O): 2.23 ns

SMILES: CN(C)c1ccc(C2=Nc3scc(-c4ccc(N(C)C)cc4)[n+]3[B-](F)(F)O2)cc1
- fluorescence lifetime (in C1CCOC1): 0.21 ns

SMILES: COc1cc2cc(/C=C/c3ccc(/C=C(\C#N)C(=O)O)cc3)c(=O)oc2cc1OC
- fluorescence lifetime (in CC#N): 2.06 ns

SMILES: CC(C)c1cccc(C(C)C)c1N1C(=O)c2cccc3c(Oc4ccccc4)ccc(c23)C1=O
- fluorescence lifetime (in ClCCl): 4.67 ns

SMILES: O=S1(=O)c2ccccc2C2(c3cc(-c4ccc(-n5c6ccccc6c6ccccc65)cc4)ccc3-c3ccc(-c4ccc(-n5c6ccccc6c6ccccc65)cc4)cc32)c2ccccc21
- fluorescence lifetime (in ClCCl): 0.9 ns

SMILES: CC1(C)[C@@H]2[C@@H]1[C@]1(c3ccccc3)N=NC2(c2ccccc2)C2C3C=CC(C3)C21 (some centres not stated)
- fluorescence lifetime (in CC#N): 402 ns

SMILES: Cc1cc(-c2ccccc2)cc(C)[o+]1
- fluorescence lifetime (in CC#N): 12.1 ns
- fluorescence lifetime (in ClCCl): 0.78 ns

SMILES: CSc1sc(C(C)=O)c2nn[nH]c(=O)c12
- fluorescence lifetime (in C1CCOC1): 0.42 ns
- fluorescence lifetime (in CC#N): 0.75 ns
- fluorescence lifetime (in CCO): 0.41 ns
- fluorescence lifetime (in CN(C)C=O): 0.25 ns
- fluorescence lifetime (in CO): 0.33 ns
- fluorescence lifetime (in CS(C)=O): 0.15 ns

SMILES: CCCCCCCc1ccc(C2=[N+]3C(=C4c5cc(OCC(CC)CC)c(-c6ccc(CCCCCCC)o6)n5[B-](F)(F)[n+]5c4n(c4cc(C(C)(C)C)ccc45)[B-]3(F)F)C=C2OCC(CC)CC)o1
- fluorescence lifetime (in C1CCOC1): 0.4 ns
- fluorescence lifetime (in ClCCl): 0.4 ns

SMILES: Cc1ccccc1-c1ccccc1C
- fluorescence lifetime (in C1CCCCC1): 2.5 ns

SMILES: CCC12C(=C3C(=C4c5ccccc5S(=O)(=O)C41CC)C(F)(F)C(F)(F)C3(F)F)c1ccccc1S2(=O)=O (configuration not stated)
- fluorescence lifetime (in C1COCCO1): 1.2 ns

SMILES: O=Cc1ccc(N(c2ccc(C=O)cc2)c2ccc(-c3ccc4c(c3)C(=O)c3ccccc3C4=O)cc2)cc1
- fluorescence lifetime (in C1CCOC1): 2.01 ns
- fluorescence lifetime (in CCOC(C)=O): 1.49 ns
- fluorescence lifetime (in CCOCC): 6.6 ns
- fluorescence lifetime (in Cc1ccccc1): 6.83 ns
- fluorescence lifetime (in ClC(Cl)(Cl)Cl): 2.82 ns
- fluorescence lifetime (in ClCCl): 0.79 ns

SMILES: CC(=O)[B-]1(C(C)=O)OC(c2ccccc2)=CC(c2ccccc2)=[O+]1
- fluorescence lifetime (in CC#N): 1.5 ns
- fluorescence lifetime (in ClC(Cl)(Cl)Cl): 2.1 ns

SMILES: CC1(C)C(/C=C/C2=C(Cl)C(=C/C=C3/N(CCCS(=O)(=O)[O-])c4ccccc4C3(C)C)/CCC2)=[N+](CCCS(=O)(=O)[O-])c2ccccc21
- fluorescence lifetime (in CO): 0.529 ns

SMILES: CCN1C(=CC2=C([O-])C(=Cc3sc4ccccc4[n+]3CC)C2=O)Sc2ccccc21
- fluorescence lifetime (in CO): 0.56 ns
- fluorescence lifetime (in ClC(Cl)Cl): 4.05 ns

SMILES: COC(=O)C(Cc1ccc2oc(-c3ccc4c(c3)c3ccccc3n4-c3ccccc3)nc2c1)NC(=O)OC(C)(C)C (configuration not stated)
- fluorescence lifetime (in C1CCCCC1): 2.29 ns
- fluorescence lifetime (in C1CCOC1): 1.73 ns
- fluorescence lifetime (in C1COCCO1): 1.96 ns
- fluorescence lifetime (in CC1CCCO1): 1.83 ns
- fluorescence lifetime (in CC1COC(=O)O1): 1.83 ns
- fluorescence lifetime (in CC#N): 1.77 ns
- fluorescence lifetime (in CC(C)=O): 1.75 ns
- fluorescence lifetime (in CC(C)CC(C)(C)C): 2.22 ns
- fluorescence lifetime (in CC(C)CO): 1.55 ns
- fluorescence lifetime (in CC(C)O): 1.57 ns
- fluorescence lifetime (in CC(C)OC(C)C): 1.66 ns
- fluorescence lifetime (in CC(O)CO): 1.74 ns
- fluorescence lifetime (in CCC(C)CC): 2.25 ns
- fluorescence lifetime (in CCCCC): 2.66 ns
- fluorescence lifetime (in CCCCCC): 2.23 ns
- fluorescence lifetime (in CCCCCCCCC): 2.3 ns
- fluorescence lifetime (in CCCCCCCCCC): 2.33 ns
- fluorescence lifetime (in CCCCCCCO): 1.55 ns
- fluorescence lifetime (in CCCCCCO): 1.56 ns
- fluorescence lifetime (in CCCCCO): 1.54 ns
- fluorescence lifetime (in CCCCO): 1.54 ns
- fluorescence lifetime (in CCO): 1.66 ns
- fluorescence lifetime (in CCOC(C)=O): 1.87 ns
- fluorescence lifetime (in CCOCC): 2.13 ns
- fluorescence lifetime (in CN(C)C=O): 1.73 ns
- fluorescence lifetime (in CO): 1.72 ns
- fluorescence lifetime (in COCCOC): 1.2 ns
- fluorescence lifetime (in CS(C)=O): 1.69 ns
- fluorescence lifetime (in Cc1ccccc1): 1.66 ns
- fluorescence lifetime (in Cc1ccccc1C): 1.76 ns
- fluorescence lifetime (in ClC(Cl)Cl): 1.32 ns
- fluorescence lifetime (in ClCCl): 1.5 ns
- fluorescence lifetime (in NC=O): 1.86 ns
- fluorescence lifetime (in OC1CCCCC1): 1.58 ns
- fluorescence lifetime (in OCCO): 1.84 ns
- fluorescence lifetime (in c1ccccc1): 1.67 ns

SMILES: CCOC(=O)C(C(=O)OCC)C1=[N+]2C(=C(c3ccc(C)cc3)c3ccc(C(C(=O)OCC)C(=O)OCC)n3[B-]2(F)F)C=C1
- fluorescence lifetime (in C1CCCCC1): 3.15 ns
- fluorescence lifetime (in C1CCOC1): 2.82 ns
- fluorescence lifetime (in CCOC(C)=O): 2.5 ns
- fluorescence lifetime (in CO): 2.18 ns
- fluorescence lifetime (in Cc1ccccc1): 4.14 ns
- fluorescence lifetime (in ClC(Cl)Cl): 3.62 ns

SMILES: COc1ccc(C2=C(c3ccc(OC)cc3)C(c3ccccc3)=[N+]3C2=Nc2c(-c4ccc(OC)cc4)c(-c4ccc(OC)cc4)c(-c4ccccc4)n2[B-]3(F)F)cc1
- fluorescence lifetime (in Cc1ccccc1): 0.08 ns

SMILES: Cc1cc(C)c(B(c2ccccc2-n2c3ccccc3c3ccccc32)c2c(C)cc(C)cc2C)c(C)c1
- fluorescence lifetime (in Cc1ccccc1): 38 ns

SMILES: Cc1ccc2nc3c(=O)[nH]c(=O)[nH]c3nc2c1
- fluorescence lifetime (in CC#N): 0.4 ns
- fluorescence lifetime (in ClCCCl): 0.32 ns

SMILES: CC1(C)C(/C=C/C2=C(c3ccc(C(=O)O)cc3)C(=C/C=C3/N(CCCCS(=O)(=O)[O-])c4ccc(S(=O)(=O)[O-])cc4C3(C)C)/CCC2)=[N+](CCCCS(=O)(=O)[O-])c2ccc(S(=O)(=O)[O-])cc21
- fluorescence lifetime (in CC(C)=O): 1.02 ns
- fluorescence lifetime (in CCO): 1 ns
- fluorescence lifetime (in CO): 0.81 ns
- fluorescence lifetime (in CS(C)=O): 1.33 ns
- fluorescence lifetime (in O): 0.44 ns
